# Reference: patent US5153318A, “3'-Azido nucleoside compound” (Burroughs Wellcome Co., priority 1989, dated 1992)
# Legend:
# HIV-1 (strain 3B) = test: Anti-HIV-1 activity, reversal of cytopathic effect in MT4 cells (propidium iodide dye uptake); assay type: cell-based; conditions: Human immunodeficiency virus 1, MT4, 120 h, 100XTCID50, five days, protection of 50% of the cells from cell killing
# Description: i) Anti-HIV activity was determined by measuring the ability of the compound to reverse the cytopathic effect of HIV infection. This was determined by a quantitative assessment of cell growth monitored at the fifth day post infection by a propidium iodide dye uptake test. MT4 cells were incubated with 100XTCID50 of HIV-1 (strain 3B) or HIV-2 (Zagury strain) for one hour prior to addition of compound in six different concentrations varying from 2 to 200 μM. The cells were allowed to incubate for five days at 37° C. On day five, NP-40, a detergent, was added to a final concentration of 0.5% immediately prior to analysis. Cell number was determined using a method which measures the fluorescence of a dye (propidium iodide) which binds to DNA. Since the amount of DNA is directly proportional to cell number, this fluorescence assay is an indication of cell growth. While uninfected cells double in cell number several times during the five days duration of the assay. HIV-infected cells grow very little, if at all.
# human hepatitis B virus = test: Anti-HBV activity in human HBV producer cell line of HepG2, 2.2.15; assay type: cell-based; conditions: HepG2 2.2.15 cells, ten days; criterion at least 100-fold reduction of Dane particles and similar decrease of intracellular replicative intermediates
# Description: ii) The human HBV producer cell line of HepG2, 2.2.15, described and characterized by Sells et al., PNAS 84:1005, 1987 and J. Virol. […] This cell line was utilized in vitro to identify compounds with anti-HBV activity.
# To test compounds for antiviral activity, monolayer cultures were treated with compound. […], for ten days. Supernatant media containing extracellular virion DNA (Dane particles) were harvested on days three, six and ten, treated with proteinase K (1 mg/mL) and sodium dodecyl sulfate (1%), and incubated at 50° C. for one hour. DNA was extracted with equal volumes of phenol followed by chloroform and then precipitated by ammonium acetate and propanol. […] After precipitation by ammonium acetate and propanol, the intracellular DNA precipitate was dissolved, cut by restriction endonuclease, Hind III, applied to agarose gel and then treated as described by Southern to determine the quantity of replicative intermediate forms. The antiviral effect of the drug was determined by measuring at least a 100-fold reduction of the amount of Dane particles extruded into the culture medium and a similar decrease in the intracellular replicative intermediates.
SMILES,IC50 (HIV-1 (strain 3B)),inhibition of human hepatitis B virus (human hepatitis B virus)
"[N-]=[N+]=N[C@H]1C[C@H](n2cnc3c(OCc4ccccc4)nc(N)nc32)O[C@@H]1CO [Example 6b, 2-Amino-9-(3-azido-2,3-dideoxy-β-D-erythro-pentofuranosyl)-6-benzyloxy-9H-purine]",8.9 µM,
"CN(C)c1nc(N)nc2c1ncn2[C@H]1C[C@H](N=[N+]=[N-])[C@@H](CO)O1 [Example 7b, 2-Amino-9-(3-azido-2,3-dideoxy-β-D-erythro-pentofuranosyl)-6-dimethylamino-9H-purine]",,strong inhibition
